From a melting point compilation (Tetko et al.; mined from patent text by program, amines drawn as free bases though some values may be those of a salt) come the findings set out here.

A value given as a limit tells only on which side of the number the result lay.

For `c1cc2cc3ccc(OCCN4CCCCC4)cc3nc2cc1OCCN1CCCCC1`, the melting point (in general, the temperature of the solid-liquid transition) lay within 129 to 130 °C.
Regarding `NC(=O)c1sc2nccc(N3CCCN(c4ccc(F)cc4)CC3)c2c1N`, the melting point lay in the range of 203 to 205 °C.
Turning to `CCc1nc2c(N)nc3cccnc3c2n1CC1(O)CCOC1` (centres undefined), the melting point lay within 234 to 236 °C.
Take `COc1ccc2ncccc2c1N`: the melting point is 152 to 154 °C.
`CC(C)N(CCOc1ccc(NC(=O)c2c[nH]c3c2C(=O)CCC3)cc1)C(C)C`: the melting point lay in the range of 140 to 141 °C.
For `CCC(C)Oc1ccccc1-c1nc2ccc(C(=O)O)cc2c(=O)[nH]1` (centres undefined), the melting point was in the range of 242 to 244 °C.
Compound `COC(=O)CC(=O)C[C@H]1NC(=O)[C@@H]1N1C(=O)c2ccccc2C1=O` had a melting point of 116 to 120 °C.
The compound `Oc1ccc(-c2nc3ccccc3nc2-c2ccc(O)cc2)cc1` came in with a melting point of 336 to 338 °C.
Compound `COCOc1nn(-c2ccccc2)cc1/C=C/c1csc(-c2ccccc2C(=O)OC)n1` returned a melting point of 134 to 135 °C.
For `O=C(Nc1ccc2[nH]c(=O)sc2c1)C(=O)N1CCC(Oc2ccc(Cl)cc2)CC1` the value was 245 to 247 °C; for `Cn1cc(C2=C(c3c4n(c5ccccc35)CCC(CNC(=O)OC(C)(C)C)C4)C(=O)N(O)C2=O)c2ccccc21` (centres undefined), 238 to 240 °C; for `N#Cc1cscc1Nc1ccc(Cl)cc1[N+](=O)[O-]`, 214 °C.
In the case of `O=C(C=Cc1ccccc1)Nc1ccc(S(=O)(=O)O)cc1`, the melting point fell in the range of 235 to 237 °C.
Then `O=C1COc2cc(Sc3ccc(O)cc3)ccc2N1`, with 156 to 157 °C.
For `C=CCN1Cc2cncn2C(c2ccc(C#N)cc2)C1=O` (centres undefined) the value was 107 to 109 °C.
For the compound `CCc1nn(C(C)C)c2cc(C(=O)Nc3c(Cl)cncc3Cl)ccc12`, the melting point was 145 to 148 °C.
For `O=c1cc(-c2ccoc2)c2ccc(COc3cc(F)cc(-c4ccccc4)c3)cc2o1` the value was 105 to 107 °C.
`O=[N+]([O-])c1ccc(C2CCOCC2)cc1` gave a melting point of 124 °C.
`CN1CCN(c2cc(NC(=O)OC(C)(C)C)c(N)cc2C#Cc2ccccc2)CC1` gave a melting point of 81 to 85 °C.
Compound `CN(C(=O)c1ccc(C(C)(C)C)cc1)C1N(C)C(c2ccc(F)cc2)=NC1(C(F)(F)F)C(F)(F)F` (centres undefined) yielded a melting point of 129 to 130 °C.
`CC(=O)C1CCC2=C(C1)C(=O)c1cc3ccccc3cc1C2=O` (centres undefined) gave a melting point of 189 to 192 °C.
The compound `CC(C)(C)OC(=O)N(Cc1ccccc1)[C@H](COP(=O)(Oc1ccccc1)Oc1ccccc1)C(=O)O` came in with a melting point of 108 to 109 °C.
Regarding `COC(=O)CCc1ccc(C(=O)O)cc1[N+](=O)[O-]`, the melting point was 120 to 122 °C.
`O=C(NCc1ccc(Cl)cc1)c1cnc2ccc(C#CCO)cn2c1=O`: the melting point lay in the range of 179 to 181 °C.
`CCCCOC(=O)C(C#N)=C1Nc2ccccc2O1`: the melting point is 116 to 119 °C.
For the compound `N#Cc1cc(F)c(-n2nc(C(F)(F)F)n(N)c2=O)cc1F`, the melting point was found to be 141 °C.
As to `Cc1nc(NC(=O)OCc2ccccc2)c2n1-c1ccc(Cl)cc1C(c1ccccc1F)=NC2`, the melting point fell in the range of 250 to 253 °C.
With `Cc1ccc2c(c1)C(=O)c1ccccc1S2(=O)=O`, the melting point fell in the range of 179 to 198 °C.
`CC(=O)N1CCC(C(=O)Nc2ccccc2Oc2ccc(Cl)cc2)CC1` registered a melting point of 195 to 196 °C.
`C=Cc1ccc2ccccc2c1-c1ccc(O)c(OC)c1` gave a melting point of 83 to 86 °C.
As for `COc1cc2c(Nc3ccc(Cl)cc3F)ncnc2cc1OCCN1C(=O)CCCC1=O`, the melting point lay within 202 to 203 °C.
Then `CC1Cc2c(N3CCN(C)CC3)c(F)c(N)c3c(=O)c(C(=O)O)cn1c23` (centres undefined), with 240 to 243 °C.
Regarding `COCCNC(=O)c1cc(C(=O)O)cc([N+](=O)[O-])c1`, the melting point lay in the range of 203 to 207 °C.
`CCNC(=O)c1c(Cl)cccc1[Si](C)(C)c1ccccc1` gave a melting point of 89 to 91 °C.
`O=C(O)CCC(=O)c1ccc2c(c1)CNC(=O)N2` displayed a melting point of 176 to 180 °C.
The compound `O=C(C=Cc1ccc(O)c([N+](=O)[O-])c1)NC1CCc2ccccc21` (centres undefined) showed a melting point of 203 to 205 °C.
With `Cc1cccc2c1CCN=C2c1ccc(F)cc1`, the melting point was in the range of 71 to 71.5 °C.
In the case of `CCOC(=O)c1csc(-c2cccnc2)n1`, the melting point lay within 73 to 75 °C.
Then `NS(=O)(=O)Oc1ccc(C(=O)c2ccccc2)cc1`, with 131 to 133 °C.
For `CC(=O)OCCOc1cnc(-c2ncc([N+](=O)[O-])n2C)nc1` the value was 148 to 150 °C; for `Cc1[nH]c(-c2ccccc2)nc1C(O)C(C)C` (centres undefined), 214 °C.
As to `Nc1ccccc1NC(=O)c1ccc(CNC(=O)c2[nH]c(-c3ccoc3)cc2-c2ccc(O)cc2)cc1`, the melting point was 70 to 72 °C.
On to `O=C(O)c1nnc(-c2ccc(Cl)cc2)o1`, for which the melting point lay within 277 to 284 °C.
Then `Cc1n[nH]c(NCCCCOc2cccc(CN3CCCCC3)c2)n1`, with 138 to 139 °C; and `CC(C)N(Cc1ccccc1)S(=O)(=O)N[C@@H](Cc1ccc(NC(=O)c2c(Cl)cccc2Cl)cc1)C(=O)O`, with 159 °C; and `O=C(O)c1cc(I)cc2c(=O)c3ccccc3[nH]c12`, with more than 400 °C.
For `CC(C)(C)OC(=O)N1CC2(C[C@H]1C(=O)OCOC(=O)C(C)(C)C)SCCS2`, the melting point lay within 79.5 to 81 °C.
`Cc1nc(C)c(Cl)c(NCc2nccc(N(C)CCCSCCn3c([N+](=O)[O-])cnc3C)c2Cl)n1` gave a melting point of 123 to 126 °C.
`Cc1oc(-c2ccc(C(F)(F)F)cc2)cc1COc1cccc(C=O)c1` came in with a melting point of 85 to 86 °C.
`Clc1cccc(Nc2ncnc3[nH]nc(NCc4ccc(-c5ccccc5)cc4)c23)c1` showed a melting point of 250 to 252 °C.
The compound `CCCN1CCC(c2ccccc2)=C(C(=O)NOCc2ccccc2)C1` gave a melting point of 143 to 145 °C.
`CCC1(CC)COC(c2cccc(NC(=O)NC)c2)OC1` yielded a melting point of 112 to 125 °C.
Then `CCOC(=O)CCN=c1sc2ccc(Cl)cc2s1`, with 64 to 65 °C; and `C[C@@H](NC(=O)[C@H](Cc1ccc(O)cc1)NC(=O)OC(C)(C)C)C(=O)NCC(=O)Oc1c(Cl)c(Cl)c(Cl)c(Cl)c1Cl`, with 222 °C; and `CC(C)OCCNc1ccc(C(=O)N2CCN(CCc3ccc(Cl)cc3)CC2)cc1`, with 130 to 132 °C.
In turn, `COc1cc(OC)c(-c2cc3ccccc3[nH]2)cc1C=CC(=O)c1ccc(S(N)(=O)=O)cc1` had a melting point of 185 to 187 °C.
On to `NS(=O)(=O)c1c(Cl)cccc1-c1ccccc1`, for which the melting point lay within 185 to 187 °C.
For `Cc1cc2c(s1)Oc1ccccc1N=C2N1CCN(C)CC1` the value was 132 to 133 °C; for `Cc1cccc(-c2cc(C(F)(F)F)n3ncc(C#N)c3n2)c1`, 202 °C; for `c1cnc2c(c1)cc(-c1nnn[nH]1)c1nnnn12`, 280 to 282 °C.
As for `O=S1OCCN1c1cc(-c2ccnc(Nc3cccc(Cl)c3)n2)ccn1` (centres undefined), the melting point is 202 to 203 °C.
On to `CCCCCCCCCCc1c(C)c(C)c(-c2n[nH]c3cc(C(C)(C)C)nn23)c(C)c1C`, for which the melting point was 194 to 195 °C.
Regarding `CC(C)=CCCN1C(=O)c2ccccc2C1=O`, the melting point was 95 to 97 °C.
For `NC(=O)c1ccccc1N1CCC1COc1cncc(F)c1` (centres undefined) the value was 71 to 72 °C.
`CC1(C)Oc2cc(N)c([N+](=O)[O-])cc2O1` registered a melting point of 128 to 129 °C.
As to `CC(C)(C)c1cc(Sc2n[nH]c(=S)o2)cc(C(C)(C)C)c1O`, the melting point fell in the range of 129 to 131 °C.
In turn, `C=Cn1nc(-c2cc(C(C)(C)C)c(O)c(C(C)(C)C)c2)c2ccc(C)nc21` displayed a melting point of 136 to 137 °C.
`CCC(CC)N1CCNc2c1cc(C)nc2Oc1c(C)cc(C)cc1C` came in with a melting point of 138 to 140 °C.
In turn, `Cc1cc(NS(=O)(=O)c2n[nH]c(NC=O)n2)ccc1Br` displayed a melting point of 282 to 284 °C.
Turning to `CCOC(=O)C1=C(C)NC(C(OCC)OCC)=C(C(=O)OCC)C1c1ccccc1OC` (centres undefined), the melting point fell in the range of 105 to 107 °C.
`CC(=O)c1ccc(OCCCCCCCc2cc(C)no2)cc1`: the melting point lay in the range of 69 to 71 °C.
Compound `CC(=O)Nc1ccc(-c2cc(C(=O)c3cc(-c4ccc(NC(C)=O)cc4)c(N4CCOCC4)s3)sc2N2CCOCC2)cc1` yielded a melting point of 140 to 142 °C.
Take `Cc1coc(-c2ccc3c(c2)c2cc(-c4ccc(Cl)cc4Cl)c(=O)n(C)c2n3C)n1`: the melting point fell in the range of 258 to 261 °C.
As to `CCNC(=O)Cc1cccc([N+](=O)[O-])c1`, the melting point was in the range of 115 to 117 °C.
`O=C(O)CCCCCCCCN1NNN=C1C(c1ccccc1)c1ccccc1` had a melting point of 68 to 70 °C.
In turn, `CCON=C(C)c1cccc(S(N)(=O)=O)c1` yielded a melting point of 157 to 158 °C.
`CCC(CC)n1c(=O)sc2c(=O)[nH]c(N)nc21` came in with a melting point of more than 232 °C.
In turn, `CN(C)c1ccc(NC(=O)N(Cc2ccco2)C[C@@H]2CCC[C@H](CN(Cc3ccco3)C(=O)Nc3ccc(N(C)C)cc3)C2)cc1` yielded a melting point of 68 to 73 °C.
`Cc1c(C(=O)O)c(CC(=O)O)n(C)c1C(=O)c1ccc(Cl)cc1` yielded a melting point of 253 to 254 °C.
Regarding `CCOC(=O)c1cn(-c2ncc(Cl)cc2Cl)cn1`, the melting point lay in the range of 114 to 115 °C.
Turning to `CC(=O)c1c(C)c2ccccc2n1N`, the melting point was in the range of 94 to 98 °C.
Then `CCCc1c(C(=O)N(C)Cc2ccc3c(Br)c(OCC#N)ccc3c2)cnn1-c1ccccc1`, with 76 to 80 °C.
For the compound `CCSc1nc(C)n(Cc2ccc(-c3ccccc3C(=O)O)cc2)c1CO`, the melting point worked out at 250 °C.
As for `CN(O)C(=O)C=Cc1ccc2ccccc2c1`, the melting point was 138 to 140 °C.
`CC(C)[C@](C)(O)C(=O)O` gave a melting point of 47 to 49 °C.
On to `CCn1c2ccc(C=O)cc2c2c3ccccc3ccc21`, for which the melting point was 143 to 144 °C.
Then `O=C1NC(=O)C(Nc2ccc(CCNCC(O)c3cccnc3)cc2)S1` (centres undefined), with 46 to 48 °C; and `CNC(=O)Cc1ncc2c(n1)-c1ccc(Cl)cc1C(c1ccccc1F)=NC2`, with 175 to 177 °C.
Then `Oc1ccc2c(nc(C(F)F)n2-c2nc(N3CCOCC3)nc(N3CCOCC3)n2)c1Cl`, with more than 250 °C.
